In US7659267B2, “1,3-Benzothiazinone derivatives, process for producing the same use thereof” (Takeda Pharmaceutical Company Limited, priority 2002, dated 2010):

How the values were obtained:
[1] = test system: primary cardiomyocytes from newborn rats; assay: Cardiomyocyte apoptosis inhibitory activity (serum-free culture, viable cell number by WST-8); type: cell-based; details: Rattus norvegicus, 96 h, mean of three independent experiments, concentration required to increase the mean viable cell number by 50% vs. no test compound, serum-free Medium 199, 4 days, read-out: Minimum Effective Concentration
Excerpt: Cardiomyocyte Apoptosis Inhibitory Activity
Newborn rats (within 1 day after birth) were obtained from pregnant Wistar rats purchased from Charles River Japan, Inc., anesthetized under ether, and sterilized with 70% ethanol. Then the heart was excised with tweezers. The excised heart was washed with a phosphate buffered saline (T900; manufactured by Takara) and cut into pieces with surgical scissors. The tissue pieces were washed 4 to 5 times with a phosphate buffered saline to remove a majority of blood-derived non-myocardial cells. To the tissue pieces derived from 10 newborns, 5 ml of enzyme solution [solution prepared by dissolving trypsin (1.25 mg)(manufactured by Difco) and collagenase (0.25 mg)(manufactured by Sigma) in phosphate buffered saline (PBS)(1 ml)] was added and the mixture was stirred with a stirrer for 15 minutes while maintaining at 37° C. After 2.5 ml of the enzyme solution was added thereto, the mixture was stirred for further 15 minutes. This procedure was repeated twice. Subsequently, Medium 199 (manufactured by Gibson) containing 10% fetal calf serum (manufactured by Biowiker) was added in a half volume of the enzyme solution to terminate the enzyme reaction. The cells were filtered through a cell strainer (manufactured by Falcon) and then centrifuged at 400×g for 5 minutes to collect the cells.
The cells thus collected from the 10 newborns were suspended in 50 ml of Medium 199 containing 10% fetal calf serum. The suspension was plated onto 100 mm Petri dishes (manufactured by Iwaki) in a volume of 10 ml each/dish and cultured for 1 hour in a CO2 incubator set at 5% CO2 and 37° C. The cells were then recovered, filtered through a cell strainer and centrifuged at 400×g for 5 minutes to collect the primary cardiomyocytes derived from the newborn rats.
Then, the cardiomyocytes from the newborn rats (10) were suspended in 2 ml of hypotonic solution [prepared by dissolving NH4Cl (8.29 g), KHCO3 (1.0 g), 37 mg of EDTA/2Na (disodium ethylenediaminetetraacetate)(manufactured by Dojin Chemical Laboratory) in water (1 L)] and the suspension was allowed to stand for 3 minutes to disrupt erythrocytes. After 10 ml of Medium 199 containing 10% fetal calf serum was added thereto, the mixture was centrifuged at 400×g for 5 minutes to collect the primary cardiomyocytes from newborn rats. The cells were suspended in Medium 199 containing 10% fetal calf serum. The suspension was then filtered through a cell strainer. An aliquot of the resulting cardiomyocyte suspension was taken and 0.3% trypan blue was added thereto. The mixture was mildly mixed and the number of cardiomyocytes was counted with a hemocytometer.
The primary cardiomyocytes from the newborn rats were suspended at a density of 3×10^6 cells/ml in Medium 199 containing 10% fetal calf serum. The suspension was plated onto a 96-well plate in a volume of 0.1 ml/well, followed by incubation in a CO2 incubator set at 5% CO2 and 37° C. for a day. After the plate was stirred with a micromixer (manufactured by Taiyo Kagaku Kogyo), the medium was exchanged 3 times with serum-free Medium 199 and then test compounds were added thereto. The cells were cultured for further 4 days to induce apoptosis. Subsequently, fetal calf serum was added thereto at a concentration of 10%, and the cells were further cultured for about 17 hours in a CO2 incubator set at 5% CO2 and 37° C. The number of viable cells was determined with Cell Counting Kit (manufactured by Dojin Chemical Laboratory) using as a chromogen WST-8 [2-(2-methoxy-4-nitrophenyl)3-(4-nitrophenyl)-5-(2,4-disulfophenyl)-2H-tetrazolium, monosodium salt] to assess the cardiomyocyte apoptosis inhibitory activity.
The experiment described above was triplicated in an independent manner.
In the TABLE, the minimum effective concentration is defined as the concentration of the test compound required to increase the mean viable cell number by 50% as compared to that in the absence of any test compound.

[2] = test system: antioxidant response element (ARE) of rat glutathione S-transferase Ya subunit gene in Rat H9c2 cells; assay: Antioxidant response element (ARE)-dependent transcriptional activation activity (luciferase reporter); type: cell-based; details: concentration causing luminescence of 200% of test compound-free group (100%); H9c2 cells with pGL3-ARE reporter, about 24 hours
Excerpt: Antioxidant Response Element (ARE)-dependent Transcriptional Activation Activity
(1) Construction of Luciferase Reporter Vector Bearing Antioxidant Response Element (ARE)
ARE-containing luciferase reporter vectors pGL3-ARE and pGL3-ARE 694G were constructed based on The Journal of Biological Chemistry, 266, 11632, 1991 and The Journal of Biological Chemistry, 275, 40134, 2000, by synthesizing ARE (SEQ ID NO: 1) for rat glutathione S-transferase Ya subunit gene and mutated ARE, i.e., mutant ARE (A694G)(SEQ ID NO: 2) oligonucleotide and then transfecting them to the NheI/BglII site of pGL3-Promoter Vector (manufactured by Promega Corp.), respectively.
(2) Assay for Antioxidant Response Element (ARE)-dependent Transcriptional Activation Activity
Rat H9c2 cells were suspended in Dulbecco's modified Eagle's medium (10% FBS, D-MEM medium) containing […] heat-inactivated fetal calf serum in 7×10^4 cells/ml. […] After allowing to stand for 30 minutes, fluorescence levels by luciferase were determined using a WALLAC ARVO SX (manufactured by Perkin-Elmer). Taking the emitted luminescence of test compound-free group as 100%, the ARE-dependent transcriptional activation was shown in terms of the concentration of test compound, which caused to emit the luminescence of 200% (EC200: μM).

SMILES: O=c1nc(C2CC2)sc2ccccc12 [Example 1, 2-Cyclopropyl-4H-1,3-benzothiazin-4-one]
- melting point: 119.5 to 119.6 °C
- minimal effective concentration [1]: 0.072 µM

SMILES: O=C1NC(=C2CCC2)Sc2ccccc21 [Example 2, 2-Cyclobutylidene-2,3-dihydro-4H-1,3-benzothiazin-4-one]
- melting point: 146.7 to 149.4 °C
- minimal effective concentration [1]: 0.02 µM

SMILES: O=C1NC(=C2CCCC2)Sc2ccccc21 [Example 3, 2-Cyclopentylidene-2,3-dihydro-4H-1,3-benzothiazin-4-one]
- melting point: 190.4 to 191.4 °C
- minimal effective concentration [1]: 0.047 µM

SMILES: O=C1NC(=C2CCCCC2)Sc2ccccc21 [Example 4, 2-Cyclohexylidene-2,3-dihydro-4H-1,3-benzothiazin-4-one]
- melting point: 145.6 to 147.1 °C
- minimal effective concentration [1]: 0.042 µM

SMILES: CC(C)=C1NC(=O)c2ccccc2S1 [Example 5, 2-Isopropylidene-2,3-dihydro-4H-1,3-benzothiazin-4-one]
- melting point: 187.1 to 188.3 °C

SMILES: O=C(O)CCc1cccc(-c2nc(=O)c3ccccc3s2)c1 [Example 7, 3-[3-(4-Oxo-4H-1,3-benzothiazin-2-yl)phenyl]propionic acid]
- melting point: 179.8 to 180.2 °C

SMILES: N#Cc1cccc(-c2nc(=O)c3ccccc3s2)c1 [Example 8, 2-(3-Cyanophenyl)-4H-1,3-benzothiazin-4-one]
- melting point: 199.6 to 199.7 °C
- minimal effective concentration [1]: 0.025 µM

SMILES: O=c1nc(-c2ccc(C(F)(F)F)cc2)sc2ccccc12 [Example 9, 2-(4-Trifluoromethylphenyl)-4H-1,3-benzothiazin-4-one]
- melting point: 122.5 to 122.6 °C
- minimal effective concentration [1]: 0.088 µM

SMILES: CC(=O)c1ccc(-c2nc(=O)c3ccccc3s2)cc1 [Example 10, 2-(4-Acetylphenyl)-4H-1,3-benzothiazin-4-one]
- melting point: 197.5 to 197.6 °C
- minimal effective concentration [1]: 0.062 µM

SMILES: O=c1nc(-c2cccc(Br)c2)sc2ccccc12 [Example 11, 2-(3-Bromophenyl)-4H-1,3-benzothiazin-4-one]
- melting point: 161.6 to 161.7 °C

SMILES: O=c1nc(-c2ccc(O)cc2)sc2ccccc12 [Example 12, 2-(4-Hydroxyphenyl)-4H-1,3-benzothiazin-4-one]
- melting point: 275 °C (dec.)

SMILES: CC(=O)Nc1cccc(-c2nc(=O)c3ccccc3s2)c1 [Example 13, N-[3-(4-Oxo-4H-1,3-benzothiazin-2-yl)phenyl]acetamide]
- minimal effective concentration [1]: 0.062 µM

SMILES: CC(=O)Nc1ccc(-c2nc(=O)c3ccccc3s2)cc1 [Example 16, N-[4-(4-Oxo-4H-1,3-benzothiazin-2-yl)phenyl]acetamide]
- melting point: 231.4 to 231.5 °C
- minimal effective concentration [1]: 0.021 µM

SMILES: O=c1nc(-c2ccc(-c3ccccc3)cc2)sc2ccccc12 [Example 18, 2-(1,1′-Biphenyl-4-yl)-4H-1,3-benzothiazin-4-one]
- minimal effective concentration [1]: 0.083 µM

SMILES: O=c1nc(-c2ccccc2C(F)(F)F)sc2ccccc12 [Example 19, 2-(2-Trifluoromethylphenyl)-4H-1,3-benzothiazin-4-one]
- melting point: 139.6 to 139.8 °C

SMILES: O=c1nc(-c2cccc(C(F)(F)F)c2)sc2ccccc12 [Example 20, 2-(3-Trifluoromethylphenyl)-4H-1,3-benzothiazin-4-one]
- EC200 [2]: 1.5 µM
- melting point: 114.6 to 114.7 °C

SMILES: COC(=O)c1cccc(-c2nc(=O)c3ccccc3s2)c1 [Example 21, Methyl 3-(4-oxo-4H-1,3-benzothiazin-2-yl)benzoate]
- melting point: 164.3 to 164.4 °C

SMILES: COC(=O)C(Cc1cccc(-c2nc(=O)c3ccccc3s2)c1)NC(=O)c1ccccc1 (centres unmarked) [Example 22, Methyl 2-(benzoylamino)-3-[3-(4-oxo-4H-1,3-benzothiazin-2-yl)phenyl]propionate]
- melting point: 130.9 to 131 °C

SMILES: Cc1cc(Cl)ccc1-c1nc(=O)c2ccccc2s1 [compound 14, 2-(4-Chloro-2-methylphenyl)-4H-1,3-benzothiazin-4-one]
- melting point: 134.1 to 134.2 °C

SMILES: CCNc1cc(-c2nc(=O)c3ccccc3s2)ccc1C(=O)OC [compound 15, Methyl 2-(ethylamino)-4-(4-oxo-4H-1,3-benzothiazin-2-yl)benzoate]
- melting point: 170.8 to 178.2 °C
